Source: patent EP0302760A2, “Antiviral therapy for hepatitis B using 2',3'-dideoxynucleosides” (priority 1987, dated 1989)
In brackets after ≈: the same amount, converted by molar mass. Where two headings read alike, the source gives them in different places.

Assays:
DHBV DNA = assay: Southern blot analysis of intracellular viral DNA from DHBV-infected hepatocytes; type: cell-based, duck hepatitis B virus (DHBV); conditions: for change in DHBV DNA forms in treated hepatocytes: from day 14 to day 20; for inhibition at 1 µg/mL: Duck hepatitis B virus, Hepatocyte, similar experiments to the Southern blot of Example 2
Procedure: Southern blot analysis of intracellular viral DNA was separated on a 1.5% agarose gel. The DNA was extracted from DHBV-infected hepatocytes in a 6-cm dish and one fifth of the total DNA was applied onto each lane. […] Drug-treated groups were harvested 14 and 20 days post-plating. The DNA samples from drug-treated hepatocytes were ddA (10 µg/ml), day 14 (lane 5) and day 20 (lane 6), ddA (1 µg/ml), day 14 (lane 7) and day 20 (lane 8), ddG (10 µg/ml), day 14 (lane 9) and day 20 (lane 10), ddG (1 µg/ml), day 14 (lane 11) and day 20 (lane 12). The size markers (Kilobases) were obtained from HindIII digested bacteriophage λ DNA.

extracellular DHBV = assay: Southern blot analysis of extracellular virion DNA from culture media of DHBV-infected hepatocytes; type: cell-based, duck hepatitis B virus (DHBV); conditions: 1 µg/ml; culture media pooled from day 16 to day 20
Source text: Southern blot analysis of the extracellular virion DNA was separated on a 1.5% agarose gel. Culture media were pooled from the day 16 to day 20 post-plating. Pelleted virions were digested with pronase and the DNA from the entire sample was applied to each lane. […] RC in Figure 3 indicated relaxed circular DNA.

[1] = test system: duck hepatitis B virus (DHBV); assay: Dot blot hybridization of DHBV DNA from DHBV-infected primary duck hepatocyte cultures; type: cell-based; conditions: for inhibition at 1 µg/mL / inhibition at 10 µg/mL / IC50: Duck hepatitis B virus, Hepatocyte; for inhibition at 1 µg/mL / inhibition at 10 µg/mL: 480 h; for inhibition at 1 µg/mL: read-out: PERCENTAGE INHIBITION, 1 µg/ml; for inhibition at 10 µg/mL: read-out: PERCENTAGE INHIBITION, 10 µg/ml; for IC50: DHBV-infected hepatocytes, drug from day 2, DNA extracted on day sixteen, radioactivity of dots counted, read-out: concentrations of nucleoside analog required to inhibit the virus replication by 50% (ID₅₀)
Procedure: Dose response curves for the purine 2′,3′-dideoxynucleosides and pyrimidine 2′,3′-dideoxynucleosides have been established by using the duck hepatitis B virus (DHBV) infected hepatocyte system. The DHBV-infected hepatocyte cultures were established as described in Example 1. Dideoxynucleoside analogs were added to the media of the hepatocyte cultures on day 2 and maintained in culture with media changes every two days. On day sixteen the DNA was extracted from the cells and the dot blots performed using the ³²P-labelled DHBV probe. The radioactivity of each "dot" was quantitated by cutting out the "dot" and counting the radioactivity. The abbreviations used in Figure 1, setting out the dose response curves, are as follows: ddA = 2′,3′-dideoxyadenosine; ddG = 2′,3′-dideoxyguanosine; ddDAPR = 2,6-diaminopurine 2′,3′-dideoxyriboside; ddI = 2′,3′-dideoxyinosine; ddT = 2′,3′-dideoxythymidine; ddC = 2′,3′-dideoxycytidine.
Newborn ducklings are infected with DHBV. After 5 to 7 days post-infection, samples of blood are taken from the ducklings and examined for DHBV DNA using dot hybridization with a specific DNA probe [Mason et al, Proc. Natl. Acad. Sci. USA 79, 3997-4001 (1982)]. The livers are removed from dot-blot positive ducklings and used to produce primary hepatocyte cultures infected with DHBV as previously described. (Tuttleman et al, J. of Virology, 58, 17-25). After 2 days in culture, antiviral agents are added to the culture media. The media are changed every 2 days and at selected times, the cells are removed and the total DNA extracted.
The DNA is spotted on nitrocellulose paper and probed with the ³²P-labelled DHBV DNA probe in accordance with the following procedure. The DNA from DHBV-infected hepatocytes was extracted and spotted onto a nitrocellular filter. The above described ³²P-nick translated - DHBV DNA (pDH-010=DHBV) probe was used. The DNA was extracted from 6-cm cell culture dishes at various times post-plating. In the VC group, cells were harvested at 2, 6, 8, 10, 14, 18 and 20 days. Duplicate samples were spotted for days 14, 18 and 20. In drug-treated groups, cells were harvested on days 8, 14 and 20. In Figure 1, this is from left to right. Drugs were added to the culture at 2 days post-plating and maintained throughout media changes every 2 days. The concentrations (µg/ml) used are indicated in Figure 1 for 2′,3′-dideoxythymidine (ddT), 2′,3′-dideoxycytidine (ddC), adenine arabinoside (ara A), 2′,3′-dideoxyadenosine (ddA) and 2′,3′-dideoxyguanosine (ddG). The total intracellular DNA was extracted from cells using the standard phenol extraction method. The cells in a 6-cm diameter Petri dish (approximately 5 x 10⁶ cells) were lysed in a lysis buffer containing 0.2% SDS, 150 mM Tris-HCl pH 8.0, 10 mM EDTA, 5 mM EGTA, and 150 mM NaCl. The cell lysate was digested with 0.5 mg/ml of pronase E (available from Sigma) at 37°C for 2 hours and deproteinized by extraction with an equal volume of phenol saturated with 20 mM Tris HCl, pH 7.5, 0.5 mM EDTA and 0.1% 8-hydroxyquinoline. Concentrated ammonium acetate [pH 7.0 (2.5 M)] was added to the aqueous phase to yield a 0.25 M ammonium acetate solution and the nucleic acids were precipitated with 2 volumes of 100% ethanol. The pellet of nucleic acid was washed with ethanol and dried. The DNA was dissolved in a solution containing 12.5 mM Tris HCl, pH 7.5, 10 mM EDTA, 30% glycerol and 0.01% bromophenol blue. One twelfth of the DNA sample was spotted onto the nitrocellulose for dot-blot analysis. ddA, ddG, ddC and ddT were purchased from Pharmacia. 2,6-Diaminopurine 2′,3′-dideoxyriboside [or 2,6-diamino-9-2,3-dideoxy-β-D-glycero-pentofuranosyl)purine] (ddDAPR) can be prepared by a procedure recently used for efficient conversion of adenosine into its ddAdo derivative (Robins et al, Tetrahedron Lett., 25, […], 1984; Hansske and Robins, Tetrahedron Lett., 26, 4295-4298, 1985).

[2] = test system: monkey kidney cells (Vero); assay: Toxicity (cell viability) in monkey kidney cells; type: cell-based; conditions: 100 µg/ml over a 10 day exposure
Procedure: (§1) The toxicity of the purine 2′,3′-dideoxynucleosides has been tested in duck hepatocytes and monkey kidney cells (Vero) to reveal that decreased cell viability with ddA or ddG at 100 µg/ml over a 10 day exposure was not detected. As is known, several lymphocyte cell lines have been examined before for viability and function in the presence of 2′,3′-dideoxynucleosides. These cell lines have not shown decreased viability and function in the presence of 2′,3′-dideoxynucleosides.

duck hepatocytes = assay: Toxicity (cell viability) in duck hepatocytes; type: cell-based; conditions: 100 µg/ml over a 10 day exposure
Procedure: as §1

[3] = cited from earlier work
adenosine deaminase = adenosine deaminase (Homo sapiens, UniProt P00813); conditions: Balzarini et al 1987; cited from earlier work
adenosine deaminase, sequence (P00813 whole entry): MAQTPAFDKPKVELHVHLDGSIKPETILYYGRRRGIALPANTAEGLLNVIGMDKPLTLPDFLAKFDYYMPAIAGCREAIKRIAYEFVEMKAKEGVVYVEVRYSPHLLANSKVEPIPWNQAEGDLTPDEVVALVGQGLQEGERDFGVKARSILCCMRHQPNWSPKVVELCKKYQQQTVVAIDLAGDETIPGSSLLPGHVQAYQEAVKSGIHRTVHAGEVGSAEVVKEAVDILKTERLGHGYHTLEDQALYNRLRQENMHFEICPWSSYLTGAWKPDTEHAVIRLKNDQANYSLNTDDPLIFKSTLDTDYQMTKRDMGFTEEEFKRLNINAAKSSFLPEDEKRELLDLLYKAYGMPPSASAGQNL

[4] = Conversion of ddDAPR to ddG in whole blood; type: in vitro ADME; conditions: whole blood from a duck, in 5 minutes; read-out: ddDAPR metabolized to ddG
Source text: We have also confirmed that ddDAPR is rapidly metabolized to ddG. This has been done using whole blood from a duck and measuring the rate of conversion of ddDAPR to ddG.

DHBV = assay: In vivo treatment of Pekin ducks persistently infected with DHBV, dot blot of sera; conditions: 10 mg/kg twice daily by intramuscular injection, four ducks
Procedure: Additional tests were conducted to verify the activity in vivo. Four Pekin ducks with proven persistent infection with DHBV were treated with 2,6-diaminopurine 2′,3′-dideoxyriboside (ddDAPR). The animals received 10 mg/kg twice daily by intramuscular injection for two weeks. […] All five animals had evidence of persistent infection with DHBV. […] The untreated duck (number 5) was not bled at this time. […] The control animal (number 5) remained strongly positive after 2 weeks (row c, column 5).

hepatitis B virus = conditions: cited from earlier work
[5] = densitometry scans of the dot hybridization at 20 days

## Nc1nc2c(ncn2[C@H]2CC[C@@H](CO)O2)c(=O)[nH]1 [ddG, 2′,3′-dideoxyguanosine]
DHBV DNA
  change in DHBV DNA forms in treated hepatocytes: decrease in all forms of DHBV DNA
Extracellular DHBV
  production of extracellular virus: markedly decreased
[1]; [5]
  inhibition at 1 µg/mL: > 99%
  inhibition at 10 µg/mL: > 99%
[1]; Figure 1
  IC50: 0.07 µg/mL (≈ 0.279 µM)
[2]
  decreased cell viability: not detected
Duck hepatocytes
  decreased cell viability: not detected

## 2′,3′-dideoxythymidine [ddT, reference compound]
Extracellular DHBV
  production of extracellular virus: fail to inhibit
[1]; dose response curve, day sixteen, Figure 1
  inhibition of DHBV replication: no inhibition

## Cc1cn([C@H]2C[C@H](N=[N+]=[N-])[C@@H](CO)O2)c(=O)[nH]c1=O [AZT, 3′-azido-3′deoxythymidine]
[3]; after infusions of 1 mg/kg
  peak plasma levels: 1 µg/mL
[3]; after oral administration of 2 mg/kg
  peak plasma levels: 1 µg/mL

## Nc1ccn([C@H]2CC[C@@H](CO)O2)c(=O)n1 [ddC, 2′,3′-dideoxycytidine, reference compound]
Extracellular DHBV
  production of extracellular virus: fail to inhibit
[1]; 1 µg/ml, densitometry scans of the dot hybridization at 20 days
  PERCENTAGE INHIBITION: little inhibitory effect
[1]; [5]
  inhibition at 1 µg/mL: 0%
  inhibition at 10 µg/mL: ~57%
[1]; Figure 1
  IC50: 40 µg/mL (≈ 189 µM)

## Nc1nc(N)c2ncn([C@H]3CC[C@@H](CO)O3)c2n1 [ddDAPR, 2,6-diaminopurine 2′,3′-dideoxyriboside]
DHBV DNA; 1 µg/ml
  inhibition at 1 µg/mL: > 95%
Adenosine deaminase
  deamination by adenosine deaminase: deaminated by adenosine deaminase
[1]; [5]
  inhibition at 1 µg/mL: 98%
[1]; Figure 1
  IC50: 0.07 µg/mL (≈ 0.28 µM)
[4]
  metabolised at 5 min: > 95%
DHBV; after 1 week
  clearance of the virus from the sera: completely cleared the virus from their sera
DHBV; after 2 weeks
  clearance of the virus from the sera: cleared from the sera

## OC[C@@H]1CC[C@H](n2cnc3c(O)ncnc32)O1 [ddI, 2′,3′-dideoxyinosine]
DHBV DNA; 1 µg/ml
  inhibition at 1 µg/mL: > 95%
[1]; [5]
  inhibition at 1 µg/mL: 96%

## Nc1ncnc2c1ncn2[C@@H]1O[C@H](CO)[C@@H](O)[C@@H]1O [araA, adenine arabinoside]
Hepatitis B virus; chronic hepatitis B patients
  toxicity associated with therapy: bone marrow suppression, neuromuscular pain and neurotoxicity
Hepatitis B virus; chronic hepatitis B, most open and controlled studies
  treated patients that show some benefit from therapy: about 30%
[1]; [5]
  inhibition at 10 µg/mL: ~63%

## Nc1ncnc2c1ncn2[C@H]1CC[C@@H](CO)O1 [ddA, 2′,3′-dideoxyadenosine]
DHBV DNA; 1 µg/ml, RC, CCC and SS forms
  inhibition of the synthesis of all forms of DHBV DNA: very strong inhibition
DHBV DNA
  change in DHBV DNA forms in treated hepatocytes: small increase in RC DNA
Extracellular DHBV
  production of extracellular virus: markedly decreased
[1]; [5]
  inhibition at 1 µg/mL: > 99%
  inhibition at 10 µg/mL: > 99%
[1]; Figure 1
  IC50: 0.12 µg/mL (≈ 0.51 µM)
[2]
  decreased cell viability: not detected
Duck hepatocytes
  decreased cell viability: not detected
